Tests used:
[1] = tested on: immune cells (T cell lineage), mast cells; test: immune cells, mast cells and cytokines in vivo after CP; design: species or system mice; conditions: mice after immune-suppression by CP; lymphoid tissue, Peyers Patches, spleen
Excerpt: The stimulated immune cells were phenotypically identified as CD4 positive T cells and double null CD4 negative CD8 negative T cell progenitors. […] The in vivo activity of TGFα (and the functional peptides of formula I, formula II, formula III, and formula IV) to stimulate early T cell progenitors in the release of TH-1 and TH-2 cytokines and this regulation of immune phenomena. The stimulation of select immune cells, in particular cells of a T cell lineage, was seen consistently in the mice who received CP and TGF-α57 in lymphoid tissue, Peyers Patches and the spleen. Further, recruitment of help via CD4 cells in some cases boosts immune system function in general.
This is a parallel activity that is in addition to the gastrointestinal anti-inflammatory activity and prevention of mucositis of TGFα (and the functional peptides of formula I, formula II, formula III, and […]) described herein.

[2] = tested on: lymphoid tissues such as spleen and the large intestine; test: histological examination of lymphoid tissues after TGF-α57; assay type: in vivo; conditions: mice; 10-50 μg/kg ip 3 days or 10-50 μg/kg iv 2 days or 10 μg/kg sc 3-5 days; vs untreated mice
Excerpt: In still another embodiment, a TGF-α polypeptide, a related polypeptide, mimetic, or functional fragment thereof having TGF-α activity are useful as vaccine adjuvants to increase mucosal humoral immunity. […] Such T cell progenitors positioned in the gastrointestinal tract represent a reservoir for CD4 helper cells needed against mucosal directed vaccine production mediated by priming with exogenous antigen. The T cell progenitor cells appear to be double null and thus naive. Accordingly, the T cell progenitor cell response to TGF-α and TGF-α mimetics provides the utility for such compounds to provide a strong mucosal immunity response and usefulness as a mucosal vaccine and as a universal stem cell adjuvant.

kidney [3] = test: glycerol acute kidney toxicity, blood BUN and creatinine; assay type: in vivo, CD-1 mice; conditions: 50% glycerol 10 ml/kg im; 1 μg ip; two treatments
Description: In another set of in vivo experiments, glycerol (50% (v/v) aqueous solution, Sigma) was used as the cytotoxic agent for an acute cytotoxic agent. Six CD-1 mice were weighed and injected into both hind limbs im with 10 ml/kg of 50% (v/v) glycerol, one half into each hind limb im. Three of the mice were controls and injected with 0.1 ml of 0.9% saline and the other three injected ip with 0.1 ml of 10 μg/ml stock of TGF-α (57 aa polypeptide) as a 1 μg dose. The mice were reinjected with the same does of saline or TGFα the next day and another equal dose of 50% glycerol. After two treatments, the mice were sacrificed and blood BUN and creatinine was measured and the kidneys examined. The average creatinine values were 1.75±0.613 for controls and 1.51±0.940 for treated mice. The average BUN values were […] for controls and 165.3±75.6 for treated mice.

mouse intestines = test: histological examination of intestines of CP-treated mice; assay type: in vivo
Description: The experiment procedure dosed those animals to be treated with TGFα 57 4 hours prior to challenge with CP. A single dose of CP was administered. Additional doses (as indicated) of TGFα 57 were made at 24 hours, 48 hours, 72 hours and 96 hours after the CP dose. All doses were made by IP injection. Controls were dosed with saline instead of either or both of CP and TGF-α57.
The animals were sacrificed about 4 hours after the last TGF-α57 (or saline) dose. Key organs were removed and spleens were immediately weighed after a clean incision. All the relevant organs were placed in formalin, transported for histopathological analysis, mounted, sectioned, stained and observed. The results of this histological analysis of the spleens for hematopoietic effect and the GI tract (below) provided surprising and unexpected data of the effect of TGF-α57 activity.
TGFα or a peptide from formula I, formula II, formula III, formula IV, formula V, or formula VI having TGFα activity or combinations thereof are also useful for treating mucositis associated intestinal bleeding, dyspepsia caused by with cytotoxic therapy and for improving the barrier function of the GI tract compromised by cytotoxic therapy. The in vivo experiment with seven groups of mice described above for hematopoietic effects noted in spleens also examined the GI tract of these treated mice. […] A single row of intestinal crypt is found at the base of the mucosa. These crypts that lie between adjacent villi are surrounded by the same lamina propria that form the villous cores. Both columnar absorptive cells and goblet cells cover the villous surfaces. The goblet cells contain apical clear vacuoles. […] Specifically, the villus was long and slender. Both absorptive cells and goblet cells were visible at the surface of the villi, and there was an abundant amount of goblet cells on the surface.
A 160×magnification of the intestines of a CP-treated mouse, a normal mouse and a CP treated and TGFα57 treated mouse at the same doses as described above. […] The crypts were irregularly shaped and in had various heights. […] The crypts also appeared normal.
Red cells were visible at the damaged surface indicating intestinal bleeding. […] Globlet cells appeared interspersed, necrotic and fewer in number than normal. […] Specifically, the epithelial cells appeared normal with extended brush borders. The nuclei were very densely stained and elongated.
The histological data is summarized in FIG. 4 that measured average crypt height of the three groups of mice.
An alcian blue staining method permitted differentiation of absorptive cells and goblet cells. Goblet cell mucus is stained a blue color while the absorptive cells remain less stained. […] In the normal intestine each villus extended from the luminal surface to the basal muscularis mucosal surface. Goblet cells were scattered and predominated in the base of the villus whereas columnar absorptive cells lined the luminal surface. […] The injured absorptive and goblet cells were degenerating at the tip of the villi and abundant secretory mucus material was stained in the luminal surface. In the CP/TGF-α mouse, there were an increased number of goblet cells scattered throughout the villi. The intestinal villi appeared normal with elongation. […] The luminal plasma membranes of the villi were well protected by TGF-α treatment. The number of goblet cells was counted on the average unit length of intestine.

kidney [4] = test: gentamicin chronic kidney toxicity, blood BUN and creatinine; assay type: in vivo, CD-1 mice; conditions: gentamicin sulfate 80 mg/kg sc every 24 hours; 1 μg ip every 24 hours; two weeks
Description: In another set of in vivo experiments, gentamicin (antibiotic having dose-limiting kidney toxicity side effects) was used as the cytotoxic agent for a chronic cytotoxic agent. Eight CD-1 mice were weighed and injected subcutaneously with 80 mg/kg of gentamicin sulfate. Four of the mice were controls and injected with 0.1 ml of 0.9% saline and the other four injected ip with 0.1 ml of 10 μg/ml stock of TGF-α (57 aa polypeptide) as a 1 μg dose. The mice were reinjected with the same does of saline or TGF-α every 24 hours and every 24 hours subcutaneously with the same does of gentamicin. After two weeks of treatment, the mice were sacrificed and blood BUN and creatinine were measured and the kidneys examined. The average creatinine values were 0.49±0.096 for controls and 0.34±0.042 for treated mice. The average BUN values were 36.1±4.8 for controls and 35.5±4.9 for treated mice.

## TGF-α57: 57 amino acid polypeptide of formula VI: Ser-Leu-Ser-Leu-Pro-Ala-Met-Human TGFα
[1]
  proliferation of select immune cells (T cell lineage): stimulation of proliferation of select immune cells
[2]
  T cell progenitor cells (histology): increase in T cell progenitor cells
Kidney [3]
  average BUN: 165.3±75.6
  average creatinine: 1.51±0.940
Mouse intestines; CP 10 mg/kg and 50 μg/kg
  intestinal structure (cross section histology): intestinal structure was very similar to the normal intestinal structure
  number of goblet cells on the average unit length of intestine (alcian blue): increased the number from CP treatment to a higher level than normal intestine
  villa surface, higher magnification: protection of the villa surface
  villi and crypts, 160× magnification: normal appearing villi
Mouse intestines; CP treatment, 50 μg/kg, FIG. 4
  average crypt height: more-than-restore crypt height loss
Kidney [4]
  average BUN: 35.5±4.9
  average creatinine: 0.34±0.042

Source: patent US6677307B2, “TGF-α polypeptides, functional fragments and methods of use therefor” (Kaleidos Pharma, Inc., priority 1999, dated 2004)
